Measured values as given in patent US7763728B2, “Tetrahydropyridothiophenes” (4SC AG, priority 2005, dated 2010).

Assays:
[1] = system: RKO (RKOp27) human colon adenocarcinoma cells; assay: Alamar Blue cell viability assay, anti-proliferative/cytotoxic activity on proliferating (uninduced) RKOp27 cells; format: cell-based; conditions: 72 hours incubation, absence of the inducer Ponasterone A, read-out: IC50 RKO p27 uninduced (proliferating)
Method in brief: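 RKOp27 subclones seeded at 5000 cells/well, compounds added after 24 h in DMEM/10% FCS, quadruplicates, 72 h at 37 °C, 5% CO2. Alamar Blue fluorescence (ex 544/em 590 nm) normalised to untreated cells (1% DMSO medium) as 100%; IC50 from concentration-effect curves.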

[2] = system: RKO colon adenocarcinoma cells (RKOp27) arrested by the expression of ectopic p27Kip1; assay: Alamar Blue cell viability assay on RKOp27 cells arrested by p27Kip1 expression induced by Ponasterone A; format: cell-based; conditions: Homo sapiens, 72 hours incubation, 10 μM Ponasterone A, read-out: IC50 RKO p27 induced (arrested)
Method in brief: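 RKOp27 cells, 15000/well, held in DMEM with 10% FCS and with or without 10 μM Ponasterone A to induce p27Kip1 arrest. Compound dilutions added 24 h after seeding, then 72 h at 37 °C in quadruplicate. Alamar Blue fluorescence (544/590 nm) gave % viability relative to untreated cells.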

SMILES	IC50 [1] [µM]	IC50 [2] [µM]
COc1ccc(C)cc1CCC(=O)Nc1sc2c(c1C#N)CCN(C(=O)Cc1ccncc1)C2 [Example 74, N-[3-Cyano-6-(2-pyridin-4-yl-ethanoyl)-4,5,6,7-tetrahydro-thieno[2,3-c]pyridin-2-yl]-3-(2-methoxy-5-methyl-phenyl)-propionamide]	≤ 0.3	> 100
COc1ccc(C)cc1CCC(=O)Nc1sc2c(c1C#N)CCN(C(=O)CCc1nccn1C)C2 [Example 118, N-{3-Cyano-6-[3-(1-methyl-1H-imidazol-2-yl)-propanoyl]-4,5,6,7-tetrahydro-thieno[2,3-c]pyridin-2-yl}-3-(2-methoxy-5-methyl-phenyl)-propionamide]	0.3 to 2	≥ 10
COCC(=O)N1CCc2c(sc(NC(=O)CCc3cc(C)ccc3OC)c2C#N)C1 [Example 33, N-[3-Cyano-6-(2-methoxy-ethanoyl)-4,5,6,7-tetrahydro-thieno[2,3-c]pyridin-2-yl]-3-(2-methoxy-5-methyl-phenyl)-propionamide]	0.3 to 2	> 100
CCCC(=O)N1CCc2c(sc(NC(=O)CC(C)c3ccccc3OC)c2C#N)C1 (racemic) [Example 89, (RS)—N-(6-Butyryl-3-cyano-4,5,6,7-tetrahydro-thieno[2,3-c]pyridin-2-yl)-3-(2-methoxy-phenyl)-butyramide]	≤ 0.3	> 100
COc1ccc(C)cc1CCC(=O)Nc1sc2c(c1C#N)CCN(C(=O)CCc1ccncc1)C2 [Example 124, N-[3-Cyano-6-(3-pyridin-4-yl-propanoyl)-4,5,6,7-tetrahydro-thieno[2,3-c]pyridin-2-yl]-3-(2-methoxy-5-methyl-phenyl)-propionamide]	0.3 to 2	≥ 10
CCOc1ccccc1C(C)CC(=O)Nc1sc2c(c1C#N)CCN(C(=O)Cc1ccccn1)C2 (racemic) [Example 63, (RS)—N-[3-Cyano-6-(2-pyridin-2-yl-ethanoyl)-4,5,6,7-tetrahydro-thieno[2,3-c]pyridin-2-yl]-3-(2-ethoxy-phenyl)-butyramide]	≤ 0.3	≥ 10
COc1ccccc1C(C)CC(=O)Nc1sc2c(c1C#N)CCN(C(=O)CCc1cccnc1)C2 (racemic) [Example 77, (RS)—N-[3-Cyano-6-(3-pyridin-3-yl-propanoyl)-4,5,6,7-tetrahydro-thieno[2,3-c]pyridin-2-yl]-3-(2-methoxy-phenyl)-butyramide]	0.3 to 2	> 100
CCOc1ccccc1CCC(=O)Nc1sc2c(c1C#N)CCN(C(=O)COC(C)=O)C2 [Example 10, Acetic acid 2-{3-cyano-2-[3-(2-ethoxy-phenyl)-propanoylamino]-4,7-dihydro-5H-thieno[2,3-c]pyridin-6-yl}-2-oxo-ethyl ester]	≤ 0.3	> 100
COc1ccccc1CCC(=O)Nc1sc2c(c1C#N)CCN(C(=O)CCn1ccnc1C)C2 [Example 108, N-{3Cyano-6-[3-(2-methyl-imidazol-1-yl)-propanoyl]-4,5,6,7-tetrahydro-thieno[2,3-c]pyridin-2-yl}-3-(2-methoxy-phenyl)-propionamide]	0.3 to 2	≥ 10
CCOc1cccc(C(C)CC(=O)Nc2sc3c(c2C#N)CCN(C(=O)Cc2ccccn2)C3)c1 (racemic) [Example 61, (RS)—N-[3-Cyano-6-(2-pyridin-2-yl-ethanoyl)-4,5,6,7-tetrahydro-thieno[2,3-c]pyridin-2-yl]-3-(3-ethoxy-phenyl)-butyramide]	0.3 to 2	> 100
COc1cccc(CCC(=O)Nc2sc3c(c2C#N)CCN(C(=O)CCCO)C3)c1 [Example 21, N-[3-Cyano-6-(4-hydroxy-butanoyl)-4,5,6,7-tetrahydro-thieno[2,3-c]pyridin-2-yl]-3-(3-methoxy-phenyl)-propionamide]	0.3 to 2	> 100
COc1ccccc1CCC(=O)Nc1sc2c(c1C#N)CCN(C(=O)COC(C)=O)C2 [Example 7, Acetic acid 2-{3-cyano-2-[3-(2-methoxy-phenyl)-propanoylamino]-4,7-dihydro-5H-thieno[2,3-c]pyridin-6-yl}-2-oxo-ethyl ester]	≤ 0.3	> 100
COc1ccccc1CCC(=O)Nc1sc2c(c1C#N)CCN(C(=O)CCc1ccccn1)C2 [Example 95, N-[3-Cyano-6-(3-pyridin-2-yl-propanoyl)-4,5,6,7-tetrahydro-thieno[2,3-c]pyridin-2-yl]-3-(2-methoxy-phenyl)-propionamide]	≤ 0.3	> 100
CCOc1ccccc1CCC(=O)Nc1sc2c(c1C#N)CCN(C(=O)Cn1cc(C)nc1C)C2 [Example 148, N-{3-Cyano-6-[2-(2,4-dimethyl-imidazol-1-yl)-ethanoyl]-4,5,6,7-tetrahydro-thieno[2,3-c]pyridin-2-yl}-3-(2-ethoxy-phenyl)-propionamide]	≤ 0.3	≥ 10
CCOc1ccccc1CCC(=O)Nc1sc2c(c1C#N)CCN(C(=O)CCn1ccnc1)C2 [Example 102, N-[3-Cyano-6-(3-Imidazol-1-yl-propanoyl)-4,5,6,7-tetrahydro-thieno[2,3-c]pyridin-2-yl]-3-(2-ethoxy-phenyl)-propionamide]	≤ 0.3	≥ 10
CCOc1ccccc1CCC(=O)Nc1sc2c(c1C#N)CCN(C(=O)CCc1nccn1C)C2 [Example 117, N-{3-Cyano-6-[3-(1-methyl-1H-imidazol-2-yl)-propanoyl]-4,5,6,7-tetrahydro-thieno[2,3-c]pyridin-2-yl}-3-(2-ethoxy-phenyl)-propionamide]	≤ 0.3	≥ 10
CCOc1ccccc1CCC(=O)Nc1sc2c(c1C#N)CCN(C(=O)COC)C2 [Example 19, N-[3-Cyano-6-(2-methoxy-ethanoyl)-4,5,6,7-tetrahydro-thieno[2,3-c]pyridin-2-yl]-3-(2-ethoxy-phenyl)-propionamide]	≤ 0.3	> 100
COCCOCC(=O)N1CCc2c(sc(NC(=O)CCc3cccc(OC)c3)c2C#N)C1 [Example 30, N-{3-Cyano-6-[2-(2-methoxy-ethoxy)-ethanoyl]-4,5,6,7-tetrahydro-thieno[2,3-c]pyridin-2-yl}-3-(3-methoxy-phenyl)-propionamide]	0.3 to 2	> 100
COc1cccc(CCC(=O)Nc2sc3c(c2C#N)CCN(C(=O)Cn2cnc(C)c2)C3)c1 [Example 138, N-{3-Cyano-6-[2-(4-methyl-imidazol-1-yl)-ethanoyl]-4,5,6,7-tetrahydro-thieno[2,3-c]pyridin-2-yl}-3-(3-methoxy-phenyl)-propionamide]	0.3 to 2	≥ 40
CCOc1ccccc1CCC(=O)Nc1sc2c(c1C#N)CCN(C(=O)CCc1ccccn1)C2 [Example 17, N-[3-Cyano-6-(3-pyridin-2-yl-propanoyl)-4,5,6,7-tetrahydro-thieno[2,3-c]pyridin-2-yl]-3-(2-ethoxy-phenyl)-propionamide]	≤ 0.3	≥ 40
COc1ccc(OC)c(CCC(=O)Nc2sc3c(c2C#N)CCN(C(=O)Cc2cccnc2)C3)c1 [Example 36, N-[3-Cyano-6-(2-pyridin-3-yl-ethanoyl)-4,5,6,7-tetrahydro-thieno[2,3-c]pyridin-2-yl]-3-(2,5-dimethoxy-phenyl)-propionamide]	0.3 to 2	> 100
COc1ccccc1CCC(=O)Nc1sc2c(c1C#N)CCN(C(=O)Cn1cnc(C)c1)C2 [Example 139, N-{3-Cyano-6-[2-(4-methyl-imidazol-1-yl)-ethanoyl]-4,5,6,7-tetrahydro-thieno[2,3-c]pyridin-2-yl}-3-(2-methoxy-phenyl)-propionamide]	≤ 0.3	≥ 40
CCOc1ccccc1CCC(=O)Nc1sc2c(c1C#N)CCN(C(=O)CCc1ccncc1)C2 [Example 123]	≤ 0.3	≥ 10
COc1cccc(CCC(=O)Nc2sc3c(c2C#N)CCN(C(=O)Cc2ccccn2)C3)c1 [Example 31, N-[3-Cyano-6-(2-pyridin-2-yl-ethanoyl)-4,5,6,7-tetrahydro-thieno[2,3-c]pyridin-2-yl]-3-(3-methoxy-phenyl)-propionamide]	≤ 0.3	> 100
CCCC(=O)N1CCc2c(sc(NC(=O)CC(C)c3ccccc3OCC)c2C#N)C1 (racemic) [Example 90, (RS)—N-(6-Butyryl-3-cyano-4,5,6,7-tetrahydro-thieno[2,3-c]pyridin-2-yl)-3-(2-ethoxy-phenyl)-butyramide]	≤ 0.3	> 100
COc1cccc(C(C)CC(=O)Nc2sc3c(c2C#N)CCN(C(=O)CCc2ccncc2)C3)c1 (racemic) [Example 79, (RS)—N-[3-Cyano-6-(3-pyridin-4-yl-propanoyl)-4,5,6,7-tetrahydro-thieno[2,3-c]pyridin-2-yl]-3-(3-methoxy-phenyl)-butyramide]	0.3 to 2	> 100
COc1ccccc1C(C)CC(=O)Nc1sc2c(c1C#N)CCN(C(=O)Cn1cc(C)nc1C)C2 (racemic) [Example 144, (RS)—N-{3-Cyano-6-[2-(2,4-dimethyl-imidazol-1-yl)-ethanoyl]-4,5,6,7-tetrahydro-thieno[2,3-c]pyridin-2-yl}-3-(2-methoxy-phenyl)-butyramide]	0.3 to 2	≥ 10
CCCC(=O)N1CCc2c(sc(NC(=O)CCc3cc(C)ccc3OC)c2C#N)C1 [Example 35, N-(6-Butyryl-3-cyano-4,5,6,7-tetrahydro-thieno[2,3-c]pyridin-2-yl)-3-(2-methoxy-5-methyl-phenyl)-propionamide]	≤ 0.3	> 100
